Columns and labels:
glycoprotein VI (GPVI) = target: T1, glycoprotein VI (GPVI) (Homo sapiens, UniProt Q9HCN6); experiment: Schild analysis of CRPXL-induced platelet aggregation; inhibition of anti-GPVI antibody binding by flow cytometry; type: cell-based; conditions: platelets; read-out: Kd
T1 construct: gene GP6; native GPVI on washed human platelets; with FcRγ chain
T1 sequence (Q9HCN6 21-339): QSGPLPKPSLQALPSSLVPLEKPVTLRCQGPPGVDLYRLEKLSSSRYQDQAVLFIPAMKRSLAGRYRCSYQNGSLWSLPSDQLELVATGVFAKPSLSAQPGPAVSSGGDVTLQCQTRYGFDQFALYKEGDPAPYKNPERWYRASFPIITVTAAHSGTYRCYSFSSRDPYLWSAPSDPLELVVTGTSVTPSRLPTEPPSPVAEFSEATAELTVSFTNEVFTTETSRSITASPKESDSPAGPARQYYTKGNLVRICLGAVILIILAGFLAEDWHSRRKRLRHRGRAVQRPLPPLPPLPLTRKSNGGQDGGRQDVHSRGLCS
T1 sequence (P30273 19-86 partner): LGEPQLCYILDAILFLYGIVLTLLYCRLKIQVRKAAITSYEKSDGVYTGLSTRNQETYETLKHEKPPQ

CalDAG-GEFI = target: T2, CalDAG-GEFI (Homo sapiens, UniProt Q7LDG7); experiment: BODIPY-FL-GDP fluorescence nucleotide exchange assay with purified recombinant CalDAG-GEFI and Rap1B; type: biochemical
T2 construct: gene RASGRP2; recombinant 6xHis, C-terminal truncation p.(Ala552_Leu609del); with Rap1B
Text: BODIPY-FL-GDP fluorescence nucleotide exchange assay with purified recombinant CalDAG-GEFI and Rap1B on CalDAG-GEFI | Citalopram inhibited CalDAG-GEFI-mediated BODIPY-FL-GDP exchange onto Rap1B in a concentration-dependent manner

T2 sequence (P61224 1-167): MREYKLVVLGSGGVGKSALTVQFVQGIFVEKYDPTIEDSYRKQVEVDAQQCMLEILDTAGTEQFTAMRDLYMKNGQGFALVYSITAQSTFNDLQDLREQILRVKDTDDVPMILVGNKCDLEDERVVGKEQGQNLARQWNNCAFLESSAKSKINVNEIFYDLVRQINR
T2 sequence (Q7LDG7 1-551): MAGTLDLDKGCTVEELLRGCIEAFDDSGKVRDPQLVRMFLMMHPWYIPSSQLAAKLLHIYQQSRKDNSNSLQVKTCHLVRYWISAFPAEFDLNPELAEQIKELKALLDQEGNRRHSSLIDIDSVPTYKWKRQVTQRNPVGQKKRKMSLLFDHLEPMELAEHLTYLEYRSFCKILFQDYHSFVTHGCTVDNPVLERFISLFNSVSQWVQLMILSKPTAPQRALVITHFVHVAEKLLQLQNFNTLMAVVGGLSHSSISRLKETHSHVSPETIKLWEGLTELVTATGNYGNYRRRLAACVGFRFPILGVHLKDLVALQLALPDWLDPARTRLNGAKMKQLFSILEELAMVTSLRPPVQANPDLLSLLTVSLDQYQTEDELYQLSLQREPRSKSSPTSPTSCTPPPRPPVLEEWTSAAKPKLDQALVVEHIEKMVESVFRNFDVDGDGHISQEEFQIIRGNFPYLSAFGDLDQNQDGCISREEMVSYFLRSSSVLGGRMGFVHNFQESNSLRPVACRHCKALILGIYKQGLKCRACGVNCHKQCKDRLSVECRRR

SMILES: CN(C)CCCC1(c2ccc(F)cc2)OCc2cc(C#N)ccc21 (racemic) [citalopram]
- Kb (glycoprotein VI (GPVI)): ~16 µM
- IC50 (CalDAG-GEFI): 214 µM

Source: publication PMC6232110, “Two novel, putative mechanisms of action for citalopram-induced platelet inhibition” (Scientific Reports, 2018)
